The source of these data is patent publication US10981906B2, “Substituted pyrrolopyridine JAK inhibitors and methods of making and using the same” (ACLARIS THERAPEUTICS, INC., priority 2017, dated 2021).

Where two headings read alike, the source gives them in different places.

For one assay, the target named is JAK1 (Homo sapiens (Human), UniProt P23458). Description: JAK1 enzyme activity assay (Thermo Fisher SelectScreen Z-lyte). In kind it is biochemical. The conditions noted are these: 1 hour kinase reaction, read-out: JAK1 Inhibition IC50. On the procedure:
The inhibitory potency of candidate compounds of JAK1 done at Thermo Fisher Scientific in their Selectscreen using a Z-lyte assay. The 2×JAK1/Tyr 06 mixture is prepared in 50 mM HEPES pH 6.5, 0.01% BRIJ-35, 10 mM MgCl2, 1 mM EGTA, 0.02% NaN3. The final 10 μL of the Kinase Reaction consists of 21.2-91.5 ng JAK1 and 2 μM Tyr 06 in 50 mM HEPES pH 7.0, 0.01% BRIJ-35, 10 mM MgCl2, 1 mM EGTA, 0.01% NaN3. After the 1 hour Kinase Reaction incubation, 5 μL of a 1:128 dilution of Development Reagent is added.
(§1) Background signal is defined in the absence of enzyme and uninhibited signal is defined in the presence of vehicle (2% DMSO) alone. Compounds were evaluated in an 11 point dose-response ranging from […] to 0.34 nM. IC50 values of compounds are determined using a 4 parameter logistical fit of emission ratio as a function of the concentration of compound.

A further assay concerns the target JAK3 (a.a. 781-1124) (Homo sapiens (Human), UniProt P52333). In words: JAK3 enzyme activity assay (SRCtide phosphorylation, Caliper). In kind it is biochemical. The conditions noted are these: 2.5 nM JAK3, 1 μM SRCtide, 1 uM ATP, 40 minutes; read-out: JAK3 Inhibition IC50. As for the experimental part:
The activity of JAK3 (a.a. 781-1124, ThermoFisher) was quantified by measuring the phosphorylation of SRCtide (FAM-GEEPLYWSFPAKKK-NH2). Kinase reactions were run in a 384-well Greiner plate with 2% final DMSO concentration under the buffer conditions of 20 mM HEPES, pH 7.5, 10 mM MgCl2, 0.01% BSA, and 0.0005% Tween-20. The kinase reaction components were 2.5 nM JAK3, 1 μM SRCtide peptide and 1 uM ATP. Examples were tested in dose-response starting at 2 μM (11 concentrations, 3-fold serial dilution, duplicate reactions). The reactions were incubated at room temperature for 40 minutes, then stopped by adding a 1:1 volume of 30 mM EDTA in 20 mM HEPES, pH 7.5 (15 mM EDTA final). After the reaction was stopped, the phosphorylated and unphosphorylated peptides were separated and quantified using a Caliper LC3000/EZ-Reader system and HTS Well Analyzer Software (Caliper, A PerkinElmer Company, Hopkinton, Mass.). GraFit (Erithacus Software Ltd., Horley, U.K.) was used to calculate inhibitor potency by fitting dose-response data to the 4-parameter logistical IC50 equation.
as §1

For assay [1], the system named is IL-2 stimulated STAT5 phosphorylation on Tyr694 (JAK1/3). Description: JAK1/3 cellular target modulation: IL-2 stimulated phospho-STAT5 in PBMC. The settings on record: IL-2 25 ng/ml, 1 hour compound preincubation, read-out: IL2-STAT5 Inhibition IC50. In kind it is cell-based. An excerpt:
(§2) Target modulation was based upon the ability of a compound to inhibit JAK isoform specific phosphorylation of selected substrates. IL-2 stimulated STAT5 phosphorylation on Tyr694 was used to assess JAK1/3 compound selectivity. GM-CSF stimulated STAT5 phosphorylation on Tyr694 was used to assess JAK2 compound selectivity. IFNγ stimulated STAT1 phosphorylation on Tyr701 was used to assess JAK1/2 compound selectivity. For all three assays, human PBMC from frozen stocks were thawed, pelleted, resuspended in complete media (90% RPMI, 10% heat inactivated FBS, 10 mM HEPES, 47 μM 2-ME, pen/strep) and placed in wells of a 96 well V-bottom plate at 200,000 per well in 120 μl complete media. Compounds were added as 15 μl per well of 10× working stock solutions in complete media with 1% DMSO (or medium with 1% DMSO for controls) and placed on a plate shaker in a 37° C. incubator with 5% CO2 for 1 hour with gentle shaking (setting of 3). Stimulation used the addition of soluble cytokines. For the JAK1/3 phospho-STAT5 assay, 15 μl of 10× working stock recombinant human IL-2 was added to a final concentration of 25 ng/ml. For the JAK2 phospho-STAT5 assay, 15 μl of 10× working stock recombinant human GM-CSF was added to a final concentration of 5 ng/ml. For the JAK1/2 phospho-STAT1 assay, 15 μl of 10× working stock of recombinant human IFNγ was added to a final concentration of 10 ng/ml. Plates were then placed back on the plate shaker in the incubator for an additional 5, 5 and 10 minutes respectively upon which the plates were removed from the incubator, sealed with a plate sealer and the cells pelleted at 400×g for 5 minutes. After pelleting, the media was removed by aspiration and the cells were lysed in ELISA specific cell lysis buffer. The levels of phospho-STAT5 were determined using a Phospho (Tyr694)/Total STAT5a,b Whole Cell Lysate kit from Meso Scale Discovery. Levels of phospho-STAT1 were determined using a CST-PathScan Phospho-STAT1 (Tyr701) Sandwich ELISA kit.

For assay [2], the system named is IFNγ stimulated STAT1 phosphorylation on Tyr701 (JAK1/2). In words: JAK1/2 cellular target modulation: IFNγ stimulated phospho-STAT1 in PBMC. It is filed as cell-based. The conditions noted are these: IFNγ 10 ng/ml, 1 hour compound preincubation, read-out: Infγ-STAT1 IC50.
Description: as §2

Sequence of JAK3 (a.a. 781-1124) (P52333 781-1124): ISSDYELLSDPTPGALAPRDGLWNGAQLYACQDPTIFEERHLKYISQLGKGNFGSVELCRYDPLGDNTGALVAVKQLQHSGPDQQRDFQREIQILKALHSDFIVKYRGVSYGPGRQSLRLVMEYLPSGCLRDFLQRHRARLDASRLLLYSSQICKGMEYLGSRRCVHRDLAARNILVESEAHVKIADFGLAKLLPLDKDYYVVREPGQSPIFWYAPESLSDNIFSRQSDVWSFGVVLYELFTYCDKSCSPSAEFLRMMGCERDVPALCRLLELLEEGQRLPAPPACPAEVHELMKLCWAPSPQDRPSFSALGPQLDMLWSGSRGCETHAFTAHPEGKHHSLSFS
Sequence of JAK1 (P23458 whole entry): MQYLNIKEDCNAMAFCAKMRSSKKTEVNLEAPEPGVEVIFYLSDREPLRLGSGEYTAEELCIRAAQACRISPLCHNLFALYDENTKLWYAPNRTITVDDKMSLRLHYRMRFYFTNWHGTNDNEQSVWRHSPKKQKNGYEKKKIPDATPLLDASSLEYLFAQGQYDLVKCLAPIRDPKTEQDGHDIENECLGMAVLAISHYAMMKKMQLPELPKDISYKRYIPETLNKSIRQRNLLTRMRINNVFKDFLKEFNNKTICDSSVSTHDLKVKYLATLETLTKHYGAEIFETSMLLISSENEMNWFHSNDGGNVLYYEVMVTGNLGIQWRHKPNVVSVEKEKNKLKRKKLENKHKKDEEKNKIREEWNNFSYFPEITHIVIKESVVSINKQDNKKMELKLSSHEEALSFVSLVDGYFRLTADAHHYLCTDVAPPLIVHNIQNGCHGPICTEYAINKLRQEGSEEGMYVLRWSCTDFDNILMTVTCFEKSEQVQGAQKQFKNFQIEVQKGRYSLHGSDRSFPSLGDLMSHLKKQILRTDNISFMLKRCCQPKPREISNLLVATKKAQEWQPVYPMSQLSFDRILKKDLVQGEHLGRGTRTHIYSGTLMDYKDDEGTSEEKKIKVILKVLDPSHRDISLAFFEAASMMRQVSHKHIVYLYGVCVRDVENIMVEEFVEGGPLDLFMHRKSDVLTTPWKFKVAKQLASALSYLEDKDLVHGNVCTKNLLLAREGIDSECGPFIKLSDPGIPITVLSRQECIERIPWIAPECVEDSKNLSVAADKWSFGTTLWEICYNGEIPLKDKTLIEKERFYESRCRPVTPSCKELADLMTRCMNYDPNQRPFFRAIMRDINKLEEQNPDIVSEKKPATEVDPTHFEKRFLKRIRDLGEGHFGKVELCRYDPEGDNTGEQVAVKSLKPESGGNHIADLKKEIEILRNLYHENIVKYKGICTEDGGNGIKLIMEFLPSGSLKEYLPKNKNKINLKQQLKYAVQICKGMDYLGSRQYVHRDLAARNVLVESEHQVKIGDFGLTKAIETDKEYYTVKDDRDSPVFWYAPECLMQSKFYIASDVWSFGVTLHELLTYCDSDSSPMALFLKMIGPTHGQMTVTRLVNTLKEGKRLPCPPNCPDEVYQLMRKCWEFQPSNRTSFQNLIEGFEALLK

One may read the IC50 as the midpoint of a concentration-inhibition curve. As for `CCOC(=O)c1cnc2[nH]ccc2c1N[C@H]1CC[C@H](O)C1` (single isomer, unassigned) [Example 75, (trans)-ethyl 4-((3-hydroxycyclopentyl)amino)-1H-pyrrolo[2,3-b]pyridine-5-carboxylate], the concentration for half-maximal inhibition (IC50) at JAK1 was 10 to 100 nM; on JAK3 (a.a. 781-1124), 10 to 100 nM; in assay [1] (Homo sapiens, PBMC) it was 100 to 1000 nM; in assay [2] (Homo sapiens, PBMC), over 1000 nM.

Take `COCCOC(=O)c1cnc2[nH]ccc2c1N[C@H]1CCC[C@@H](CCC#N)C1` (single isomer, unassigned; enantiomer 1) [Example 149, cis-2-methoxyethyl 4-((3-(2-cyanoethyl)cyclohexyl)amino)-1H-pyrrolo[2,3-b]pyridine-5-carboxylate, enantiomer 1]: the IC50 is 100 to 1000 nM on JAK1; 10 to 100 nM at JAK3 (a.a. 781-1124); 100 to 1000 nM in assay [1] (Homo sapiens, PBMC); over 1000 nM in assay [2] (Homo sapiens, PBMC).

Turning to `CCOC(=O)c1cnc2[nH]ccc2c1N(C)[C@H]1CN(C(=O)CC#N)CC[C@H]1C` [Example 1, ethyl 4-(((3R,4R)-1-(2-cyanoacetyl)-4-methylpiperidin-3-yl)(methyl)amino)-1H-pyrrolo[2,3-b]pyridine-5-carboxylate], the IC50 at JAK1 was 10 to 100 nM; on JAK3 (a.a. 781-1124), 10 to 100 nM; in assay [1] (Homo sapiens, PBMC), 100 to 1000 nM; in assay [2] (Homo sapiens, PBMC) it was over 1000 nM.

Regarding `CC(C)OC(=O)c1cnc2[nH]ccc2c1N[C@H]1CN(C(=O)CC#N)CC[C@H]1C` [Example 124, isopropyl 4-(((3R,4R)-1-(2-cyanoacetyl)-4-methylpiperidin-3-yl)amino)-1H-pyrrolo[2,3-b]pyridine-5-carboxylate], the IC50 is 10 to 100 nM on JAK1; 10 to 100 nM at JAK3 (a.a. 781-1124); 100 to 1000 nM in assay [1] (Homo sapiens, PBMC); over 1000 nM in assay [2] (Homo sapiens, PBMC).

On to `CCOC(=O)c1cnc2[nH]ccc2c1N[C@@H]1CCCN(C(=O)C(C)(C)C#N)C1` [Example 144, ethyl (R)-4-((1-(2-cyano-2-methylpropanoyl)piperidin-3-yl)amino)-1H-pyrrolo[2,3-b]pyridine-5-carboxylate], for which the IC50 on JAK1 was in the range of 10 to 100 nM; at JAK3 (a.a. 781-1124) it was 10 to 100 nM; in assay [1] (Homo sapiens, PBMC) it was 100 to 1000 nM; in assay [2] (Homo sapiens, PBMC), 100 to 1000 nM.

In the case of `CCOC(=O)c1cnc2[nH]ccc2c1NC1CCCC(O)C1` (stereo not drawn) [Example 141, ethyl 4-((3-hydroxycyclohexyl)amino)-1H-pyrrolo[2,3-b]pyridine-5-carboxylate], the 50% inhibitory concentration (IC50) at JAK1 is 10 to 100 nM; on JAK3 (a.a. 781-1124) it was 10 to 100 nM; in assay [1] (Homo sapiens, PBMC), 100 to 1000 nM; in assay [2] (Homo sapiens, PBMC), over 1000 nM.

Turning to `CCOC(=O)c1cnc2[nH]ccc2c1N[C@H]1CN(CCC#N)CC[C@H]1C` [Example 24, ethyl 4-(((3R,4R)-1-(2-cyanoethyl)-4-methylpiperidin-3-yl)amino)-1H-pyrrolo[2,3-b]pyridine-5-carboxylate], the IC50 at JAK1 was at most 10 nM; at JAK3 (a.a. 781-1124) it was at most 10 nM; in assay [1] (Homo sapiens, PBMC), at most 100 nM; in assay [2] (Homo sapiens, PBMC), 100 to 1000 nM.

Regarding `N#CCC(=O)N1CCC[C@@H](Nc2c(C(=O)OCC3CC3)cnc3[nH]ccc23)C1` [Example 145, cyclopropylmethyl (R)-4-((1-(2-cyanoacetyl)piperidin-3-yl)amino)-1H-pyrrolo[2,3-b]pyridine-5-carboxylate], the 50% inhibitory concentration (IC50) at JAK1 was at most 10 nM; on JAK3 (a.a. 781-1124) it was 10 to 100 nM; in assay [1] (Homo sapiens, PBMC) it was at most 100 nM; in assay [2] (Homo sapiens, PBMC), 100 to 1000 nM.

`CCOC(=O)c1cnc2[nH]ccc2c1N[C@H]1CCC[C@@H](CCC#N)C1` (single isomer, unassigned; enantiomer 1) [Example 135, (cis) ethyl 4-((3-(2-cyanoethyl)cyclohexyl)amino)-1H-pyrrolo[2,3-b]pyridine-5-carboxylate, enantiomer 1]: the half-inhibitory concentration (IC50) is at most 10 nM at JAK1; at most 10 nM on JAK3 (a.a. 781-1124); at most 100 nM in assay [1] (Homo sapiens, PBMC); at most 100 nM in assay [2] (Homo sapiens, PBMC).

As for `CCOC(=O)c1cnc2[nH]ccc2c1N[C@H]1CCC[C@@H](CCC#N)C1` (racemic) [Example 133, (rac)-(cis)-ethyl 4-((3-(2-cyanoethyl)cyclohexyl)amino)-1H-pyrrolo[2,3-b]pyridine-5-carboxylate], the half-maximal inhibitory concentration (IC50) at JAK1 is at most 10 nM; at JAK3 (a.a. 781-1124), at most 10 nM; in assay [1] (Homo sapiens, PBMC), at most 100 nM; in assay [2] (Homo sapiens, PBMC), 100 to 1000 nM.

For the compound `CCOC(=O)c1cnc2[nH]ccc2c1N[C@@H]1CCC[C@@H](CCC#N)C1` (single isomer, unassigned; enantiomer 1) [Example 137, (trans) ethyl 4-((3-(2-cyanoethyl)cyclohexyl)amino)-1H-pyrrolo[2,3-b]pyridine-5-carboxylate enantiomer 1], the IC50 on JAK1 is at most 10 nM; on JAK3 (a.a. 781-1124) it was at most 10 nM; in assay [1] (Homo sapiens, PBMC) it was at most 100 nM; in assay [2] (Homo sapiens, PBMC), over 1000 nM.

With `CCOC(=O)c1cnc2[nH]ccc2c1N[C@H]1CN(C(=O)C2(C#N)CC2)CC[C@H]1C` [Example 126, ethyl 4-(((3R,4R)-1-(1-cyanocyclopropane-1-carbonyl)-4-methylpiperidin-3-yl)amino)-1H-pyrrolo[2,3-b]pyridine-5-carboxylate], the IC50 was 10 to 100 nM at JAK1; 10 to 100 nM on JAK3 (a.a. 781-1124); 100 to 1000 nM in assay [1] (Homo sapiens, PBMC); over 1000 nM in assay [2] (Homo sapiens, PBMC).

For the compound `COC(=O)c1cnc2[nH]ccc2c1N[C@H]1CCC[C@H](CCC#N)C1` (racemic) [Example 151, trans-racemic-methyl 4-((3-(2-cyanoethyl)cyclohexyl)amino)-1H-pyrrolo[2,3-b]pyridine-5-carboxylate], the 50% inhibitory concentration (IC50) at JAK1 was at most 10 nM; at JAK3 (a.a. 781-1124), at most 10 nM; in assay [1] (Homo sapiens, PBMC), at most 100 nM; in assay [2] (Homo sapiens, PBMC), 100 to 1000 nM.

Turning to `CCOC(=O)c1cnc2[nH]ccc2c1NC1CCC(CCC#N)C1` (single isomer, unassigned; stereoisomer 1) [Example 154, Ethyl 4-((3-(2-cyanoethyl)cyclopentyl)amino)-1H-pyrrolo[2,3-b]pyridine-5-carboxylate, single stereoisomer 1], the concentration for half-maximal inhibition (IC50) at JAK1 was 100 to 1000 nM; on JAK3 (a.a. 781-1124), 10 to 100 nM; in assay [1] (Homo sapiens, PBMC), 100 to 1000 nM; in assay [2] (Homo sapiens, PBMC), over 1000 nM.

Turning to `CCOC(=O)c1cnc2[nH]ccc2c1N[C@H]1CC[C@H](OC(=O)CC#N)C1` (single isomer, unassigned) [Example 74, (trans)-ethyl 4-((3-(2-cyanoacetoxy)cyclopentyl)amino)-1H-pyrrolo[2,3-b]pyridine-5-carboxylate], the concentration for half-maximal inhibition (IC50) at JAK1 was 10 to 100 nM; on JAK3 (a.a. 781-1124), 10 to 100 nM; in assay [1] (human PBMC) it was 100 to 1000 nM; in assay [2] (human PBMC), over 1000 nM.
